According to patent US12442035B2, “Compositions and methods for detecting antibiotic responsive mRNA expression signatures and uses thereof” (THE BROAD INSTITUTE, INC., priority 2018, dated 2025):
Values after ≈ are worked out from the molar mass of the structure shown. “Also recorded” adds a separate entry of the source. Like-named read-outs stand apart in the source and are kept apart here. Values belong to the molecule of their own block, whether it stands above or below them.

Assays:
[1] = system: K. pneumoniae clinical isolates; assay: Standard broth microdilution MIC; assay type: cell-based, Klebsiella pneumoniae
Excerpt: (§3) All strains in this study (Table 7) were obtained from clinical or reference microbiological laboratories, including both local hospitals and MDRO strain collections from the Centers for Disease Control's Antibiotic Resistance Isolate Bank (see e.g., World Wide Web at (www).cdc.gov/ARIsolateBank/) and the New York State Department of Health.

[2] = system: E. coli clinical isolates; assay: Standard broth microdilution MIC; assay type: cell-based, Escherichia coli; settings: for MIC: Escherichia coli
Excerpt: as §3

[3] = system: K. pneumoniae clinical isolates; assay: RNA-Seq transcriptional response to antibiotic exposure, GO term enrichment; assay type: cell-based, Klebsiella pneumoniae; settings: CLSI breakpoint concentration, 0, 10, 30, 60 minutes
Excerpt: (§1) Fisher's combined probability test was used to select only those genes whose expression after antibiotic treatment was statistically distinguishable from its expression at any timepoint in the untreated samples. Gene ontology (GO) terms were assigned using blast2GO (version 1.4.4), with hypergeometric testing for enrichment. For each pathogen-antibiotic pair, the fold-change threshold in DESeq2 used to test statistical significance was increased to select 60-100 antibiotic-responsive transcripts with maximal stringency, a number readily accommodated by the NanoString® assay format. […] As with responsive genes, the fold-change threshold was varied in order to select the top 10-20 control transcripts. […] See Supplemental Methods sections below for further details.
(§2) After antibiotic treatment as described in the above Materials and Methods section, cells were pelleted, resuspended in 0.5 mL Trizol reagent (ThermoFisher Scientific), transferred to 1.5 mL screw-cap tubes containing 0.25 mL of 0.1 mm diameter Zirconia/Silica beads (BioSpec Products), and lysed mechanically via bead-beating for 3-5 one-minute cycles on a Minibeadbeater-16 (BioSpec) or one 90-second cycle at 10 m/sec on a FastPrep (MP Bio). After addition of 0.1 mL chloroform, each sample tube was mixed thoroughly by inversion, incubated for 3 minutes at room temperature, and centrifuged at 12,000×g for 15 minutes at 4° C. […]

[4] = system: E. coli clinical isolates; assay: as above; assay type: cell-based, Escherichia coli; settings: CLSI breakpoint concentration, 0, 10, 30, 60 minutes
[5] = system: A. baumannii clinical isolates; assay: as above; assay type: cell-based, Acinetobacter baumannii; settings: CLSI breakpoint concentration, 0, 10, 30, 60 minutes
Excerpt: as §1, §2

[6] = system: S. aureus clinical isolates; assay: Standard broth microdilution MIC; assay type: cell-based; settings: Staphylococcus aureus, read-out: levo MIC
Excerpt: as §3

SMILES: C[C@@H](O)[C@H]1C(=O)N2C(C(=O)O)=C(S[C@@H]3CN[C@H](C(=O)N(C)C)C3)[C@H](C)[C@H]12 [mero]
mero MIC ([1]; KpMero strain AR0034): 2 mg/L | mero MIC ([1]; KpMero strain AR0040): >32 mg/L | mero MIC ([1]; KpMero strain AR0041): 16 mg/L | mero MIC ([1]; KpMero strain AR0042): <0.5 mg/L | mero MIC ([1]; KpMero strain AR0043): 2 mg/L | mero MIC ([1]; KpMero strain AR0044): 4 mg/L | mero MIC ([1]; KpMero strain AR0047): 4 mg/L | mero MIC ([1]; KpMero strain AR0075): 8 mg/L | mero MIC ([1]; KpMero strain AR0087): 1 mg/L | mero MIC ([1]; KpMero strain AR0135): 8 mg/L | mero MIC ([1]; KpMero strain AR0139): 32 mg/L | mero MIC ([1]; KpMero strain BAA2524 (RB554), value marked *): 0.5* mg/L | mero MIC ([1]; KpMero strain BIDMC_14): 16 mg/L | mero MIC ([1]; KpMero strain BIDMC_22): 0.25 mg/L | mero MIC ([1]; KpMero strain BIDMC_31): 0.125 mg/L | mero MIC ([1]; KpMero strain BIDMC_35): >32 mg/L | mero MIC ([1]; KpMero strain BIT-03): 8 mg/L | mero MIC ([1]; KpMero strain BIT-04): 32 mg/L | mero MIC ([1]; KpMero strain BIT-05): >32 mg/L | mero MIC ([1]; KpMero strain BIT-12): <0.5 mg/L | mero MIC ([1]; KpMero strain BIT-16): ≤0.5 mg/L | mero MIC ([1]; KpMero strain BWH_2): 16 mg/L | mero MIC ([1]; KpMero strain BWH_15): 8 mg/L | mero MIC ([1]; KpMero strain BWH_30): ≤0.5 mg/L | mero MIC ([1]; KpMero strain BWH_36): 16 mg/L | mero MIC ([1]; KpMero strain CDC_1500610): ≤0.5 mg/L | mero MIC ([1]; KpMero strain IDR1200023303): >32 mg/L | mero MIC ([1]; KpMero strain IDR1600031102-01-00): >32 mg/L | mero MIC ([1]; KpMero strain IDR1600037310): 1 mg/L | mero MIC ([1]; KpMero strain IDR1600057468-01-00): 4 mg/L | mero MIC ([1]; KpMero strain MGH_17): ≤0.5 mg/L | mero MIC ([1]; KpMero strain MGH_18): ≤0.5 mg/L | mero MIC ([1]; KpMero strain MGH_19): ≤0.5 mg/L | mero MIC ([1]; KpMero strain MGH_20): ≤0.5 mg/L | mero MIC ([1]; KpMero strain MGH_31): 8 mg/L | mero MIC ([1]; KpMero strain MGH_35): 2 mg/L | mero MIC ([1]; KpMero strain MGH_36): ≤0.5 mg/L | mero MIC ([1]; KpMero strain MGH_39): 2 mg/L | mero MIC ([1]; KpMero strain MGH_48): ≤0.5 mg/L | mero MIC ([1]; KpMero strain MGH_71): 32 mg/L | mero MIC ([1]; KpMero strain RB039): ≤0.5 mg/L | mero MIC ([1]; KpMero strain RB041): ≤0.5 mg/L | mero MIC ([1]; KpMero strain RB042): ≤0.5 mg/L | mero MIC ([1]; KpMero strain UCI_7): 0.25 mg/L | mero MIC ([1]; KpMero strain UCI_19): >32 mg/L | mero MIC ([1]; KpMero strain UCI_37): 32 mg/L | mero MIC ([1]; KpMero strain UCI_38): ≤0.5 mg/L | mero MIC ([1]; KpMero strain UCI_44): 0.25 mg/L | mero MIC ([1]; KpMero strain UCI_61): 32 mg/L | mero MIC ([1]; KpMero strain UCI_64): 0.25 mg/L | mero MIC ([2]; EcMero strain AR0048): 32 mg/L | mero MIC ([2]; EcMero strain AR0055): 8 mg/L | mero MIC ([2]; EcMero strain AR0058): 0.25 mg/L | mero MIC ([2]; EcMero strain AR0061): 8 mg/L | mero MIC ([2]; EcMero strain AR0069): 16 mg/L | mero MIC ([2]; EcMero strain AR0077): 0.5 mg/L | mero MIC ([2]; EcMero strain AR0089): 0.5 mg/L | mero MIC ([2]; EcMero strain AR0104, value marked *): 1* mg/L | mero MIC ([2]; EcMero strain BAA2469): 16 mg/L | mero MIC ([2]; EcMero strain BAA2523 (RB553), value marked *): 0.5* mg/L | mero MIC ([2]; EcMero strain BIDMC_77): 0.5 mg/L | mero MIC ([2]; EcMero strain IDR1200024571): >32 mg/L | mero MIC ([2]; EcMero strain IDR1200039757): >32 mg/L | mero MIC ([2]; EcMero strain IDR1300027657): 1 mg/L | mero MIC ([2]; EcMero strain IDR1600029769): 8 mg/L | mero MIC ([2]; EcMero strain IDR1600035372): 0.5 mg/L

SMILES: C[C@@H](O)[C@H]1C(=O)N2C(C(=O)O)=C(S[C@@H]3CN[C@H](C(=O)N(C)C)C3)[C@H](C)[C@H]12 [meropenem]
MIC ([2]; BAA2523, E. coli BAA2523 (blaOXA-48), inoculum of 10^7 cfu/mL): ≥ 32 µg/mL | MIC ([2]; BAA2523, E. coli BAA2523 (blaOXA-48), standard broth microdilution, inoculum of 10^5 cfu/mL): 0.5 to 1 µg/mL (≈ 1.3 to 2.61 µM) | MIC ([2]; E. coli AR0104 (blaKPC-4), inoculum of 10^7 cfu/mL): ≥ 32 µg/mL | MIC ([2]; E. coli AR0104 (blaKPC-4), standard broth microdilution, inoculum of 10^5 cfu/mL): 0.5 to 1 µg/mL (≈ 1.3 to 2.61 µM) | Gene ontology enrichment of antibiotic-responsive transcripts [3]: affected lipopolysaccharide biosynthesis | Gene ontology enrichment of antibiotic-responsive transcripts [4]: affected lipopolysaccharide biosynthesis; also recorded: induced a heat shock response | Gene ontology enrichment of antibiotic-responsive transcripts [5]: induced a heat shock response

MIC ([6]; S. aureus strain RB003): 0.125 µg/mL (≈ 0.346 µM) | MIC ([6]; S. aureus strain RB004): 32 µg/mL (≈ 88.6 µM) | MIC ([6]; S. aureus strain RB006): 0.06 µg/mL (≈ 0.166 µM) | MIC ([6]; S. aureus strain RB007): 16 µg/mL (≈ 44.3 µM) | MIC ([6]; S. aureus strain RB010): > 32 µg/mL | MIC ([6]; S. aureus strain RB045): 32 µg/mL (≈ 88.6 µM) | MIC ([6]; S. aureus strain RB047): > 32 µg/mL | MIC ([6]; S. aureus strain RB064): 8 µg/mL (≈ 22.1 µM) | MIC ([6]; S. aureus strain RB065): 0.06 µg/mL (≈ 0.166 µM) | MIC ([6]; S. aureus strain RB066): 0.06 µg/mL (≈ 0.166 µM) | MIC ([6]; S. aureus strain RB067): 0.13 µg/mL (≈ 0.36 µM) | MIC ([6]; S. aureus strain RB0069): 0.13 µg/mL (≈ 0.36 µM) | MIC ([6]; S. aureus strain RB072): 4 µg/mL (≈ 11.1 µM) | MIC ([6]; S. aureus strain RB074): 32 µg/mL (≈ 88.6 µM) | MIC ([6]; S. aureus strain RB090): 32 µg/mL (≈ 88.6 µM) | MIC ([6]; S. aureus strain RB095): 32 µg/mL (≈ 88.6 µM) | MIC ([6]; S. aureus strain RB096): 0.13 µg/mL (≈ 0.36 µM) | MIC ([6]; S. aureus strain RB098): 0.13 µg/mL (≈ 0.36 µM) | MIC ([6]; S. aureus strain RB211): 16 µg/mL (≈ 44.3 µM) | MIC ([6]; S. aureus strain RB219): 32 µg/mL (≈ 88.6 µM) | MIC ([6]; S. aureus strain RB221): 0.13 µg/mL (≈ 0.36 µM) | MIC ([6]; S. aureus strain RB223): 0.13 µg/mL (≈ 0.36 µM) | MIC ([6]; S. aureus strain RB245): 0.25 µg/mL (≈ 0.692 µM) | MIC ([6]; S. aureus strain RB247): 0.5 µg/mL (≈ 1.38 µM)
SMILES: C[C@H]1COc2c(N3CCN(C)CC3)c(F)cc3c(=O)c(C(=O)O)cn1c23 [levofloxacin]
